# Experimental data taken from US20240082334A1, “STABILIZED STEVIOL GLYCOSIDE COMPOSITIONS AND USES THEREOF” (CARGILL, INCORPORATED, priority 2017, published 2024).
# Test: Reb M solubility in D2O observed in NMR sample preparation
# Format: physicochemical
# Settings: when SCs are not present, compared with SCs present; room temperature
# Protocol: A total of four samples were prepared for this study, and they are listed below. Each sample was dissolved fully in water, with or without heat as noted below, flash frozen at −80° C., and then placed on a lyophilizer until dry. The dry powders were subsequently dissolved in D2O at room temperature and analyzed by ^1H NMR and ^13C NMR.
compound,measurement,value
"C=C1C[C@@]23CC[C@H]4[C@@](C)(CCC[C@@]4(C)C(=O)O[C@@H]4O[C@H](CO)[C@@H](O)[C@H](O[C@@H]5O[C@H](CO)[C@@H](O)[C@H](O)[C@H]5O)[C@H]4O[C@@H]4O[C@H](CO)[C@@H](O)[C@H](O)[C@H]4O)[C@@H]2CC[C@]1(O[C@@H]1O[C@H](CO)[C@@H](O)[C@H](O[C@@H]2O[C@H](CO)[C@@H](O)[C@H](O)[C@H]2O)[C@H]1O[C@@H]1O[C@H](CO)[C@@H](O)[C@H](O)[C@H]1O)C3 [Reb M, Rebaudioside M]",solubility in D2O,much lower
